The record followed here is patent publication US20080200393A1, “Method and Composition For Treating Angiogenesis and For Preventing Cancer Progression and Metastasis Comprising a Prostate Secretory Protein (Psp94) Family Member” (Ambrillia Biopharma Inc., priority 2004, published 2008).

The test system of experiment [1] is total MMP-9 (human active and pro-MMP-9). The experiment in a line: Total MMP-9 ELISA on plasma of patients, Phase IIa clinical trial. The settings on record: for MMP-9 level in plasma, D27C3: day 27 of cycle 3. The format is in vivo. The source says: The clinical trial is a multiple ascending dose, open-label, Phase IIa study evaluating the safety and tolerability of PCK3145 derivative; SEQ ID NO.:7 administered intravenously in patients with metastatic hormone resistant prostatic cancer (HRPC). The study is not randomized. Patients have been enrolled sequentially and chronologically.
The drug was therefore administered to patients characterized as having metastatic adenocarcinoma of the prostate, stage IV prostatic cancer and as having a metastatic hormone resistant prostatic cancer. Four patients per cohort and 4 ascending doses were evaluated. The ascending doses were 5, 20, 40 and 80 mg/m^2. The dose escalation decision has been based on dose-limiting toxicity (DLT).
The 33-day cycle of treatment consisted of a PCK3145 derivative; SEQ ID NO.:7 administration three times per week (day 1, 3 and 5) for 26 days, followed by a 7 day post-treatment observation period. The maximum tolerated dose (MTD) is the dose level below the one inducing grade 3 or 4 drug related toxicity (DLT) in two patients from a cohort of a minimum of 4 patients. Only DLT's observed during the first cycle have been used for the dose escalation decision.
The treatment period consisted of intravenous administration of the PCK3145 derivative (SEQ ID NO.:5 derivative) i.e., SEQ ID NO.:7, three times per week (day 1, 3 and 5) for 26 consecutive days during which patients were closely monitored and undergone regular examination. After a week of treatment break and in the absence of toxicity and disease progression, patients optionally received additional treatment cycles.
Biological samples were drawn during different time points of the study for the purpose of safety monitoring and have been assayed for MMP-9 levels. Plasma samples were placed on dry ice and stored frozen (approximately −70° C.) and subsequently analyzed for total MMP-9 levels.
MMP-9 assay methodology. An Elisa assay measuring total MMP-9, i.e., human active and pro-MMP-9, (Quantikine®), Cat. No.: DMP900, R&D Systems Inc.) was performed on plasma-heparin samples. Plasma samples have been collected from individuals at day 1 (before treatment) and at day 27 of each treatment cycle.
The Quantikine® MMP-9 immunoassay is a solid phase ELISA designed to measure total MMP-9 (92 kDa pro- and 82 kDa active forms) in serum, plasma, saliva, urine and cell culture supernatants. It is calibrated with CHO-cells expressed recombinant human pro-MMP-9 and the antibodies were raised against the recombinant factor. Both antibodies also recognize recombinant human active MMP-9.
The assay employs the quantitative sandwich enzyme immunoassay technique. A monoclonal antibody specific for MMP-9 has been pre-coated onto a microplate. Standards and samples are added into the wells, and MMP-9 is thus bound by the immobilized antibody. After washing away unbound substances, an enzyme-linked polyclonal antibody specific for MMP-9 is added to the wells. Following a wash to remove unbound antibody-enzyme reagent, a substrate solution is added to the wells and color develops in proportion to the amount of total MMP-9 (pro and/or active) bound in the initial step. The color development is stopped and the intensity of the color is measured.

The test system of the next experiment is HUVEC. The experiment in a line: Matrigel endothelial cell tube formation assay. Type of experiment: cell-based, Human. The settings on record: HUVEC on Matrigel, 0-300 μg/ml, serum-free media, 24 hours. The procedure:
Matrigel endothelial cell tube formation assay Matrigel (12.5 mg/ml) was thawed at 4° C., and 50 μl were quickly added to each well of a 96-well plate and allowed to solidify for 10 min at 37° C. […] The formation of capillary-like structures was examined microscopically and pictures (50×) were taken using a Retiga 1300 camera and a Zeiss Axiovert S100 microscope. The extent to which capillary-like structures formed in the gel was quantified by analysis of digitized images to determine the thread length of the capillary-like network, using a commercially available image analysis program (Northern Eclipse).
Matrigel endothelial cell tube formation assay. […] The extent to which capillary-like structures formed in the gel was quantified by analysis of digitized images using a commercially available image analysis software (Northern Eclipse) (25).
This three dimensional ECM model assay provides physiologically relevant environment for studies of cell morphology, biochemical function, and gene expression in endothelial cells (EC) that can be modulated for instance by tumor growth factors or hypoxic culture conditions. […] The extent of capillary-like structures formation (density and size of structures) can be quantified by analysis of digitized images to determine the relative size and area covered by the tube-like network, using an image analysis software (Un-Scan-it, Empix Imaging). […]

Values joined by “and” are separate entries in the source; they are usually repeats but may differ in a detail not shown here. Equal values may be shown once. Where no end group is shown, it is not given here.

With “EWQTDNCETCTCYET (cysteine pairing not given here) [PCK3145 derivative, PCK3145 derivative with acetylaminomethyl groups on the three cysteines]”, the “change in MMP-9 levels compared to baseline” value is “significant decrease” in experiment [1] (elevated MMP-9 category (patients A, B, C, D), after one cycle); “no significant decrease” in experiment [1] (normal value MMP-9 category (patients E, F, G, H, I), after one cycle); “no MMP-9 decrease” in experiment [1] (patient E, after 3 cycles); “no decrease” in experiment [1] (patients E and G, after 2 cycles). The “MMP-9 level in plasma, D27C2” value in experiment [1] (elevated baseline MMP-9 patients, day 27 of cycle 2) was 55.6 µg/L and 37.7 µg/L. Further, the “MMP-9 level in plasma, D27C3” value in experiment [1] (elevated baseline MMP-9 patients) turned out to be 54.5 µg/L; in experiment [1] (normal baseline MMP-9 patients) it was 101.8 µg/L. Moreover, the “MMP-9 level in plasma, D27C4” value in experiment [1] (elevated baseline MMP-9 patients, day 27 of cycle 4) was 39.4 µg/L. The “decrease in MMP-9 levels compared to baseline” value in experiment [1] (patient A, after cycle 1) is reported as “up to 89%”; in experiment [1] (patient B, after cycle 1) it was 41%; in experiment [1] (patient C, cycle 1), 90%; in experiment [1] (patient D, cycle 1), 34%. The “reduction of baseline level of MMP-9” value stood at 64% in experiment [1] (patient B, treatment cycle 2); 65% in experiment [1] (patient B, treatment cycle 3); 75% in experiment [1] (patient B, treatment cycle 4). In experiment [1] (patient C, cycle 2), the “reduction in MMP-9 levels” value is listed as 76%. Further, in the experiment on HUVEC, the “capillary-like structure formation (tubulogenesis)” value is on record as “negatively affects tubulogenesis”.
